According to patent publication US8399681B2, “Substituted aminothiazolone indazoles as estrogen related receptor-alpha modulators” (Janssen Pharmaceutica NV, priority 2009, dated 2013):

Molecular target: T1, ERR1 (also known as ERR-α or ERR-1) (Homo sapiens, UniProt P11474)
T1 sequence (P11474 193-421 limits assumed): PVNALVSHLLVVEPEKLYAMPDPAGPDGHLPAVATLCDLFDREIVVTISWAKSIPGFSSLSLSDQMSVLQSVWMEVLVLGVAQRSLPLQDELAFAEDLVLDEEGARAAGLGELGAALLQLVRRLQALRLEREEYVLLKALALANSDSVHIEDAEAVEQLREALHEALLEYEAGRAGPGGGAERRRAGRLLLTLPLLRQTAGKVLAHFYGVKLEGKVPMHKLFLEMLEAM
Test: TR-FRET assay (disruption of co-activator peptide binding)
Type: biochemical
Settings: 6His-tagged ERR1 LBD, GST-hSRC2 co-activator polypeptide; average of 3 independent experiments
Procedure, shortened: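 His6-ERR1 LBD (6 nM) with GST-SRC-2 peptide (6 nM), anti-GST Eu cryptate (30 nM) and anti-His XL665 (7.5 nM) in Tris pH 8/KCl/DTT/BSA buffer, equilibrated 4-18 h at 25 °C. Ex 340, em 615/665 nm; hyperbolic dose-response fit, mean of 3 experiments.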

| Structure (SMILES) | EC50 |
| --- | --- |
| CN1CCN(C2=NC(=O)/C(=C/c3ccc4c(cnn4Cc4ccc(S(C)(=O)=O)cc4C(F)(F)F)c3)S2)CC1 [Compound 15, 5-[1-(4-Methanesulfonyl-2-trifluoromethyl-benzyl)-1H-indazol-5-ylmethylene]-2-(4-methyl-piperazin-1-yl)-thiazol-4-one] | 530 nM |
| N#Cc1nn(Cc2ccc(C(F)(F)F)cc2C(F)(F)F)c2ccc(/C=C3\SC(N4CCN[C@H](CO)C4)=NC3=O)cc12 [Example 218, 1-[2,4-Bis(trifluoromethyl)benzyl]-5-({2-[3-(S)-(hydroxymethyl)piperazin-1-yl]-4-oxo-1,3-thiazol-5(4H)-ylidene}methyl)-1H-indazole-3-carbonitrile] | 36 nM |
| CC(C)(C)NC(=O)[C@@H]1CN(C2=NC(=O)/C(=C/c3ccc4c(cnn4Cc4ccc(C(F)(F)F)cc4C(F)(F)F)c3)S2)CCN1 [Example 220, 4-[5-({1-[2,4-Bis(trifluoromethyl)benzyl]-1H-indazol-5-yl}methylidene)-4-oxo-4,5-dihydro-1,3-thiazol-2-yl]-N-tert-butylpiperazine-2-(S)-carboxamide] | 21.4 nM |
| O=C1N=C(N2CCNC[C@@H]2CO)S/C1=C\c1ccc2c(cnn2Cc2ccc(Cl)cc2C(F)(F)F)c1 [Example 105, 5-[1-(4-Chloro-2-trifluoromethyl-benzyl)-1H-indazol-5-ylmethylene]-2-(2-hydroxymethyl-piperazin-1-yl)-thiazol-4-one] | 40.9 nM |
| O=C1N=C(N2CCN[C@@H](CO)C2)S/C1=C\c1ccc2c(cnn2Cc2ccc(O)cc2C(F)(F)F)c1 [Example 250, 2-[(3R)-3-(Hydroxymethyl)piperazin-1-yl]-5-({1-[4-hydroxy-2-(trifluoromethyl)benzyl]-1H-indazol-5-yl}methylidene)-1,3-thiazol-4(5H)-one] | 190 nM |
| O=C1N=C(N2CCSCC2)S/C1=C\c1ccc2c(cnn2Cc2ccc(Cl)cc2C(F)(F)F)c1 [Example 148, 5-[1-(4-Chloro-2-trifluoromethyl-benzyl)-1H-indazol-5-ylmethylene]-2-thiomorpholin-4-yl-thiazol-4-one] | 33 nM |
| COC[C@@H]1CN(C2=NC(=O)/C(=C/c3ccc4c(cnn4Cc4ccc(C(F)(F)F)cc4C(F)(F)F)c3)S2)CCN1 [Example 211, 5-({1-[2,4-Bis(trifluoromethyl)benzyl]-1H-indazol-5-yl}methylidene)-2-[3-(S)-(methoxymethyl)piperazin-1-yl]-1,3-thiazol-4(5H)-one] | 31 nM |
| CN1CCN(C2=NC(=O)/C(=C/c3ccc4c(cnn4Cc4ccc(C(F)(F)F)cc4Br)c3)S2)CC1 [Example 28, 5-[1-(2-Bromo-4-trifluoromethyl-benzyl)-1H-indazol-5-ylmethylene]-2-(4-methyl-piperazin-1-yl)-thiazol-4-one] | 59 nM |
| O=C1N=C(N2CCC(c3nnn[nH]3)CC2)S/C1=C\c1ccc2c(cnn2Cc2ccc(C(F)(F)F)cc2C(F)(F)F)c1 [Example 109, 5-[1-(2,4-Bis-trifluoromethyl-benzyl)-1H-indazol-5-ylmethylene]-2-[4-(1H-tetrazol-5-yl)piperidin-1-yl]-thiazol-4-one] | 36 nM |
| NCC1CN(C2=NC(=O)/C(=C/c3ccc4c(cnn4Cc4ccc(C(F)(F)F)cc4C(F)(F)F)c3)S2)CCO1 (stereo not shown) [Example 201, 2-[2-(Aminomethyl)morpholin-4-yl]-5-({1-[2,4-bis(trifluoromethyl)benzyl]-1H-indazol-5-yl}methylidene)-1,3-thiazol-4(5H)-one] | 47 nM |
| CC1C(=O)N(C)CCN1C1=NC(=O)/C(=C/c2ccc3c(cnn3Cc3ccc(C(F)(F)F)cc3C(F)(F)F)c2)S1 (stereo not shown) [Example 170, 4-{5-[1-(2,4-Bis-trifluoromethyl-benzyl)-1H-indazol-5-ylmethylene]-4-oxo-4,5-dihydro-thiazol-2-yl}-1,3-dimethyl-piperazin-2-one] | 30 nM |
| COC(=O)C1CCN(C2=NC(=O)/C(=C/c3ccc4c(cnn4Cc4ccc(C(F)(F)F)cc4C(F)(F)F)c3)S2)CC1 [Example 190, Methyl 1-[5-({1-[2,4-bis(trifluoromethyl)benzyl]-1H-indazol-5-yl}methylidene)-4-oxo-4,5-dihydro-1,3-thiazol-2-yl]piperidine-4-carboxylate] | 53 nM |
| COC1CCN(C2=NC(=O)/C(=C/c3ccc4c(cnn4Cc4ccc(Cl)cc4C(F)(F)F)c3)S2)CC1 [Example 112, 5-[1-(4-Chloro-2-trifluoromethyl-benzyl)-1H-indazol-5-ylmethylene]-2-(4-methoxy-piperidin-1-yl)-thiazol-4-one] | 29 nM |

These reach a lower EC50. Values come first.

| EC50 | Structure (SMILES) |
| --- | --- |
| 6 nM | O=C1N=C(N2CC[C@H]2C(=O)O)S/C1=C\c1ccc2c(cnn2Cc2ccc(C(F)(F)F)cc2C(F)(F)F)c1 [Example 49, 1-{5-[1-(2,4-Bis-trifluoromethyl-benzyl)-1H-indazol-5-ylmethylene]-4-oxo-4,5-dihydro-thiazol-2-yl}-azetidine-2-(S)-carboxylic acid] |
| 11 nM | COCCN1CCN(C2=NC(=O)/C(=C/c3ccc4c(cnn4Cc4ccc(Cl)cc4C(F)(F)F)c3)S2)[C@H](C)C1 [Example 199, 5-({1-[4-Chloro-2-(trifluoromethyl)benzyl]-1H-indazol-5-yl}methylidene)-2-[4-(2-methoxyethyl)-2-(R)-methylpiperazin-1-yl]-1,3-thiazol-4(5H)-one] |
| 9 nM | COc1ccc(Cn2ncc3cc(/C=C4\SC(N5CCC[C@H](N)C5)=NC4=O)ccc32)c(C(F)(F)F)c1 [Example 51, 2-(3-(S)-Amino-piperidin-1-yl)-5-[1-(4-methoxy-2-trifluoromethyl-benzyl)-1H-indazol-5-ylmethylene]-thiazol-4-one] |
| 7.3 nM | O=C1CCN(C2=NC(=O)/C(=C/c3ccc4c(cnn4Cc4ccc(C(F)(F)F)cc4C(F)(F)F)c3)S2)CCN1 [Example 118, 1-{5-[1-(2,4-Bis-trifluoromethyl-benzyl)-1H-indazol-5-ylmethylene]-4-oxo-4,5-dihydro-thiazol-2-yl}-[1,4]diazepan-5-one] |
| 14.4 nM | CN1CCN(C2=NC(=O)/C(=C/c3ccc4c(cnn4Cc4ccc(Cl)cc4C4CC4)c3)S2)CC1 [Example 93, 5-[1-(4-Chloro-2-cyclopropyl-benzyl)-1H-indazol-5-ylmethylene]-2-(4-methyl-piperazin-1-yl)-thiazol-4-one] |
| 4.8 nM | CN1CCN(C2=NC(=O)/C(=C/c3ccc4c(cnn4Cc4ccc(Br)cc4C(F)(F)F)c3)S2)CC1 [Example 26, 5-[1-(4-Bromo-2-trifluoromethyl-benzyl)-1H-indazol-5-ylmethylene]-2-(4-methyl-piperazin-1-yl)-thiazol-4-one] |
| 6.5 nM | CN1CCN(C2=NC(=O)/C(=C/c3ccc4c(cnn4Cc4ccc(Cl)cc4C(F)(F)F)c3)S2)[C@@H](CO)C1 [Example 254, 5-({1-[4-Chloro-2-(trifluoromethyl)benzyl]-1H-indazol-5-yl}methylidene)-2-[(2R)-2-(hydroxymethyl)-4-methylpiperazin-1-yl]-1,3-thiazol-4(5H)-one] |
| 15 nM | COC(=O)N1CCN(C2=NC(=O)/C(=C/c3ccc4c(cnn4Cc4ccc(C(F)(F)F)cc4C(F)(F)F)c3)S2)C[C@@H]1CO [Example 216, Methyl 4-[5-({1-[2,4-bis(trifluoromethyl)benzyl]-1H-indazol-5-yl}methylidene)-4-oxo-4,5-dihydro-1,3-thiazol-2-yl]-2-(R)-(hydroxymethyl)piperazine-1-carboxylate] |
| 16 nM | CN1CCN(C2=NC(=O)/C(=C/c3ccc4c(cnn4Cc4ccc(Cl)cc4C(F)(F)F)c3)S2)C[C@@H]1CO [Example 196, 5-({1-[4-Chloro-2-(trifluoromethyl)benzyl]-1H-indazol-5-yl}methylidene)-2-[3-(R)-(hydroxymethyl)-4-methylpiperazin-1-yl]-1,3-thiazol-4(5H)-one] |
| 11 nM | CN1CCN(C2=NC(=O)/C(=C/c3ccc4c(cnn4Cc4ccc(C5CC5)cc4C(F)(F)F)c3)S2)CC1 [Example 27, 5-[1-(4-Cyclopropyl-2-trifluoromethyl-benzyl)-1H-indazol-5-ylmethylene]-2-(4-methyl-piperazin-1-yl)-thiazol-4-one] |
| 4.7 nM | O=C1N=C(N2CCN(CCO)CC2)S/C1=C\c1ccc2c(cnn2Cc2ccc(Cl)cc2C(F)(F)F)c1 [Compound 13, 5-[1-(4-Chloro-2-trifluoromethyl-benzyl)-1H-indazol-5-ylmethylene]-2-[4-(2-hydroxy-ethyl)piperazin-1-yl]-thiazol-4-one] |
| 15 nM | C[C@@H]1CNCCN1C1=NC(=O)/C(=C/c2ccc3c(cnn3Cc3ccc(Cl)cc3C(F)(F)F)c2)S1 [Example 83, 5-[1-(4-Chloro-2-trifluoromethyl-benzyl)-1H-indazol-5-ylmethylene]-2-(2-(R)-methyl-piperazin-1-yl)-thiazol-4-one] |
| 7.5 nM | COc1ccc(Cn2ncc3cc(/C=C4\SC(N5CCNCC5)=NC4=O)ccc32)c(C(F)(F)F)c1 [Example 34, 5-[1-(4-Methoxy-2-trifluoromethyl-benzyl)-1H-indazol-5-ylmethylene]-2-piperazin-1-yl-thiazol-4-one] |
| 14 nM | COc1ccc(Cn2ncc3cc(/C=C4\SC(N5CCN[C@@H](CO)C5)=NC4=O)ccc32)c(C(F)(F)F)c1 [Example 248, 2-[3-(R)-(Hydroxymethyl)piperazin-1-yl]-5-({1-[4-methoxy-2-(trifluoromethyl)benzyl]-1H-indazol-5-yl}methylidene)-1,3-thiazol-4(5H)-one] |
| 11 nM | CN1CCN(C2=NC(=O)/C(=C/c3ccc4c(cnn4Cc4ccc(Cl)cc4Br)c3)S2)CC1 [Example 95, 5-[1-(2-bromo-4-chlorobenzyl)-1H-indazol-5-ylmethylene]-2-(4-methyl-piperazin-1-yl)-thiazol-4-one] |
